Assays:
[1] = Thermal stability test (residual rate of compound (I) by HPLC); type: physicochemical
Protocol: The test compound was placed in a glass bottle and allowed to stand under the following conditions (1) and (2).
(1): Closed state, 60° C.;
The measurement conditions in high performance liquid chromatography are as follows.
Column: L-column ODS [4.6 mm×250 mm, manufactured by Chemicals Evaluation and Research Institute, Japan]
Column temperature: 40° C.
Detection wavelength: 220 nm
The residual rate (%) was calculated by the following formula.
The residual rate (%)=[1−(sum of peak area percentages of impurities and decomposed products)]×100

[2] = Absorbability test in dog; type: in vivo; conditions: fasted male beagle, ranitidine pretreated, oral 10 mg/body in 0.5% methyl cellulose, plasma; for AUC(0-t): read-out: AUC0-24 h
Protocol: Ranitidine (2.5 mg/kg) was intramuscularly injected to the posterior region of thigh of a fasted male beagle (body weight: about 10 kg, n=6) to make the intragastric pH acidic 30 minutes before, immediately before and 30 minutes after administration of the test compound. The test compound was suspended in a 0.5% methyl cellulose solution at a dose of 10 mg/body and orally administered. About 3 ml of blood was collected from the median antebrachial vein using a heparin-treated glass syringe 0.5, 1, 2, 3, 4, 6, 8 and 24 hours after the administration. The collected blood was centrifuged to obtain plasma which was cryopreserved at −20° C. until measurement of the concentration of the test compound. One hundred μl of thawed plasma was mixed with 300 μl of an internal standard solution [a methanol solution of the d3-compound (Ia), 5 ng/ml] and centrifuged. The supernatant was filtered through a filter and the filtrate was analyzed by LC/MS/MS.
A calibration curve was prepared by the same operation as above using each 100 μl of a calibration curve standard solution [a methanol solution of the compound (Ia), 0.5-400 ng/ml] which had been adjusted to respective concentrations in place of 100 μl of dog plasma.
The LC/MS/MS analysis conditions are shown below.
The area under the concentration in plasma-time curve (AUC0-24h) and the maximum concentration in plasma (Cmax) as pharmacokinetic parameters indicative of drug absorbability were calculated from the results obtained according to the aforementioned method using the compounds of Example 1, Example 2 (2C) and Comparative Example 4 as test compounds.

[3] = Condition (1): closed state, 60° C., 1 month
[4] = Condition (1): closed state, 60° C., 1 week
[5] = Condition (1): closed state, 60° C., time 0
[6] = Condition (2): non-closed state, 40° C., humidity 75%, 1 week
[7] = Condition (2): non-closed state, 40° C., humidity 75%, time 0
[8] = Condition (1): closed state, 60° C., 3 months
[9] = Condition (2): non-closed state, 40° C., humidity 75%, 1 month

Compound	Residual rate of Compound (I) (%) [1, 3]	Residual rate of Compound (I) (%) [1, 4]	Residual rate of Compound (I) (%) [1, 5]	Residual rate of Compound (I) (%) [1, 6]	Residual rate of Compound (I) (%) [1, 7]	Residual rate of Compound (I) (%) [1, 8]	Residual rate of Compound (I) (%) [1, 9]	Cmax [2]	AUC(0-t) [2]	other results
CC1=C(C(=O)OC(C)C)[C@@H](c2cccc([N+](=O)[O-])c2)C(C(=O)OC2CN(C(c3ccccc3)c3ccccc3)C2)=C(N)N1.O=S(=O)(O)O [Comparative Example 2, (R)-2-Amino-1,4-dihydro-6-methyl-4-(3-nitrophenyl)-3,5-pyridinedicarboxylic Acid 3-(1-diphenylmethylazetidin-3-yl) Ester 5-isopropyl Ester Monosulfate, reference compound]	24.3%	25.0%	93.1%	8.9%	93.1%	–	–	–	–	–
CC1=C(C(=O)OC(C)C)[C@@H](c2cccc([N+](=O)[O-])c2)C(C(=O)OC2CN(C(c3ccccc3)c3ccccc3)C2)=C(N)N1.CS(=O)(=O)O.CS(=O)(=O)O [Comparative Example 3, (R)-2-Amino-1,4-dihydro-6-methyl-4-(3-nitrophenyl)-3,5-pyridinedicarboxylic Acid 3-(1-diphenylmethylazetidin-3-yl) Ester 5-isopropyl Ester Dimethanesulfonate, reference compound]	90.0%	93.2%	99.3%	0.1%	99.3%	84.1%	0.0%	–	–	–
CC1=C(C(=O)OC(C)C)[C@@H](c2cccc([N+](=O)[O-])c2)C(C(=O)OC2CN(C(c3ccccc3)c3ccccc3)C2)=C(N)N1 [Comparative Example 4, (R)-2-Amino-1,4-dihydro-6-methyl-4-(3-nitrophenyl)-3,5-pyridinedicarboxylic Acid 3-(1-diphenylmethylazetidin-3-yl) Ester 5-isopropyl Ester, reference compound]	–	–	–	–	–	–	–	0.161 µg/mL	1.5 µg·h/mL	–
CC1=C(C(=O)OC(C)C)[C@@H](c2cccc([N+](=O)[O-])c2)C(C(=O)OC2CN(C(c3ccccc3)c3ccccc3)C2)=C(N)N1.Cl.Cl.O.O [Example 1, (R)-2-Amino-1,4-dihydro-6-methyl-4-(3-nitro-phenyl)-3,5-pyridinedicarboxylic Acid 3-(1-diphenylmethyl-azetidin-3-yl) Ester 5-isopropyl Ester Dihydrochloride dihydrate]	95.3%	96.6%	99.4%	97.8%	99.4%	92.0%	96.0%	0.168 µg/mL	1.66 µg·h/mL	Residual rate of Compound (I) (%) ([1]; Condition (2): non-closed state, 40° C., humidity 75%, 3 months): 94.1%
Br.Br.CC1=C(C(=O)OC(C)C)[C@@H](c2cccc([N+](=O)[O-])c2)C(C(=O)OC2CN(C(c3ccccc3)c3ccccc3)C2)=C(N)N1.O.O [Example 2, (R)-2-Amino-1,4-dihydro-6-methyl-4-(3-nitro-phenyl)-3,5-pyridinedicarboxylic Acid 3-(1-diphenylmethyl-azetidin-3-yl) Ester 5-isopropyl Ester Dihydrobromide dihydrate]	94.2%	–	99.8%	95.5%	99.8%	–	92.1%	0.23 µg/mL	1.93 µg·h/mL	Residual rate of Compound (I) (%) ([1]; Condition (1): closed state, 60° C., 1 month, listed as Example 2A, Dihydrobromide dihydrate): 99.7%; Residual rate of Compound (I) (%) ([1]; Condition (1): closed state, 60° C., 1 week, listed as Example 2A, Dihydrobromide dihydrate): 99.8%; Residual rate of Compound (I) (%) ([1]; Condition (1): closed state, 60° C., 1 week, listed as Example 2C, Dihydrobromide dihydrate): 95.0%; Residual rate of Compound (I) (%) ([1]; Condition (1): closed state, 60° C., 3 months, listed as Example 2A, Dihydrobromide dihydrate): 99.7%; Residual rate of Compound (I) (%) ([1]; Condition (1): closed state, 60° C., 3 months, listed as Example 2C, Dihydrobromide dihydrate): 94.5%; Residual rate of Compound (I) (%) ([1]; Condition (1): closed state, 60° C., time 0, listed as Example 2C, Dihydrobromide dihydrate): 99.1%; Residual rate of Compound (I) (%) ([1]; Condition (2): non-closed state, 40° C., humidity 75%, 1 month, listed as Example 2A, Dihydrobromide dihydrate): 99.6%; Residual rate of Compound (I) (%) ([1]; Condition (2): non-closed state, 40° C., humidity 75%, 1 week, listed as Example 2A, Dihydrobromide dihydrate): 99.7%; Residual rate of Compound (I) (%) ([1]; Condition (2): non-closed state, 40° C., humidity 75%, 3 months, listed as Example 2A, Dihydrobromide dihydrate): 99.4%; Residual rate of Compound (I) (%) ([1]; Condition (2): non-closed state, 40° C., humidity 75%, 3 months, listed as Example 2C, Dihydrobromide dihydrate): 90.6%; Residual rate of Compound (I) (%) ([1]; Condition (2): non-closed state, 40° C., humidity 75%, time 0, listed as Example 2C, Dihydrobromide dihydrate): 99.1%
(R)-2-Amino-1,4-dihydro-6-methyl-4-(3-nitrophenyl)-3,5-pyridinedicarboxylic acid 3-(1-diphenylmethylazetidin-3-yl) ester 5-isopropyl Ester Disulfate Dihydrate [Comparative Example 1, reference compound]	0.4%	68.0%	99.3%	96.8%	99.3%	–	84.4%	–	–	–
